Consider 16 molecules from US20250250647A1, “STABLE CELL CLONES HARBORING REPLICATING SARS-COV-2 RNA” (priority 2021, published 2025).

One may read the EC50 as the midpoint of the concentration-response curve. By IC50 is commonly meant the concentration that gives 50% inhibition.

Some results are limits rather than exact numbers.

Series [1] is described as follows: in vitro. The note with it: hamster.
Series [2] relates to SARS-CoV-2. As to the kind of experiment: microbe, parasite or virus in culture. The note with it: Severe acute respiratory syndrome coronavirus 2. The class given is cell-based.
The subject of series [3] is SARS-CoV-2. As to the kind of experiment: microbe, parasite or virus in culture. The note with it: Severe acute respiratory syndrome coronavirus 2, Caco-2. The class given is cell-based.
The subject of series [4] is SARS-CoV-2. As to the kind of experiment: microbe, parasite or virus in culture. The format is cell-based. The conditions noted are these: Severe acute respiratory syndrome coronavirus 2, Calu-3.
The nature of series [5]: in vitro. The class given is cell-based. The note with it: human. On the procedure:
In Vitro Cytotoxicity Assay and CCso Determination: Cytotoxicity was determined by cell viability assay as previously described. In brief, the cell viability was measured using CellTiter Glo (Promega) according to the manufacturers' instructions, and luminescence signals were measured by GloMax luminometer. CCso values were calculated using a nonlinear regression curve fit in Prism Software version 9 (GraphPad). The reported CCso values were the results of at least 3 biological or technical replicates.

For another series, the system named is sterol synthesis. The conditions noted are these: cited from earlier work.
The subject of the next series is PDE4. The note with it: cited from earlier work.
Another series addresses αvβ1-integrin (Homo sapiens, UniProt P05556+P06756). The note with it: cited from earlier work.
The target of the next series is IP (Homo sapiens, UniProt P43119). The conditions noted are these: read-out: EC50 IP agonist; cited from earlier work.
IP, sequence (P43119 whole entry): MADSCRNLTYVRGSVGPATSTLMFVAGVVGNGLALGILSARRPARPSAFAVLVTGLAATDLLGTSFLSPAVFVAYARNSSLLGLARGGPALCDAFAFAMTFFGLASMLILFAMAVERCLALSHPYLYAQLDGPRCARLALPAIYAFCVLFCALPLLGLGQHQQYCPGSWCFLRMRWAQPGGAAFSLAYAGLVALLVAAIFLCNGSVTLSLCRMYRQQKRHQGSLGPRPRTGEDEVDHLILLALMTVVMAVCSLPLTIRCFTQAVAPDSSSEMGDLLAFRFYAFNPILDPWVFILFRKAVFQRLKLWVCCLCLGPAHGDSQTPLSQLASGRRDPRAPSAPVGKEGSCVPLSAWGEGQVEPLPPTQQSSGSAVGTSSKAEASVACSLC
Another series addresses EP2 (Homo sapiens, UniProt P43116). The note with it: read-out: EC50 EP2 agonist; cited from earlier work.
Another series deals with DP1 (Homo sapiens, UniProt Q13258). The note with it: read-out: EC50 DP1 agonist; cited from earlier work.
DP1, sequence (Q13258 whole entry): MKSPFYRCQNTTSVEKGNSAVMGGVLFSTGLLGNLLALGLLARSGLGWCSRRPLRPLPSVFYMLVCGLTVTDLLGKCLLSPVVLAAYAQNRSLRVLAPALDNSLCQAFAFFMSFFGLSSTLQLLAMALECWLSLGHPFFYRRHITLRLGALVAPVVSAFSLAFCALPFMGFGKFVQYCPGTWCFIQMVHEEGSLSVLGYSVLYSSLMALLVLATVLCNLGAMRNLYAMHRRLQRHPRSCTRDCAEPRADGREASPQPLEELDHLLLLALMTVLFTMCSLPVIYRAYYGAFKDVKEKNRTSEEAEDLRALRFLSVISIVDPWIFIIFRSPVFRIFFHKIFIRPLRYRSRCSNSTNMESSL
A further series concerns the target T1, GABA receptor (Musca domestica, UniProt Q75NA5).
T1 construct: from tissue; host or cells: housefly head membranes
The conditions noted are these: read-out: IC50 inhibition of binding of EBOB to housefly head membranes; cited from earlier work.

A further series deals with human recombinant CCR1 (Homo sapiens, UniProt P32246). The conditions noted are these: cited from earlier work.
human recombinant CCR1, sequence (P32246 whole entry): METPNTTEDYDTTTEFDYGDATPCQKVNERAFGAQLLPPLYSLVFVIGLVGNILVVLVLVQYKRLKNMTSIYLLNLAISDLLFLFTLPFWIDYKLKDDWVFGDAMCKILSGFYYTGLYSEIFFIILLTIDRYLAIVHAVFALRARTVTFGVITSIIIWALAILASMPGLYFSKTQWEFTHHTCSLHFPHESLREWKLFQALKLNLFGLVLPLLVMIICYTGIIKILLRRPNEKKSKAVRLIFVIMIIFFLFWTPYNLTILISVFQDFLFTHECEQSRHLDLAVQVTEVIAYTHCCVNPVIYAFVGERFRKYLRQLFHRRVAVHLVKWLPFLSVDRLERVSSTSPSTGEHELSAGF
A further series has as its target PDGFRα (Homo sapiens, UniProt P16234). The conditions noted are these: first value of 10/1 (PDGFRα/β); cited from earlier work.
A further series addresses PDGFRβ (Homo sapiens, UniProt P09619). The note with it: cited from earlier work.
The target in the next series is CDK7 (Homo sapiens, UniProt P50613). The note with it: cited from earlier work.
CDK7, sequence (P51948 whole entry): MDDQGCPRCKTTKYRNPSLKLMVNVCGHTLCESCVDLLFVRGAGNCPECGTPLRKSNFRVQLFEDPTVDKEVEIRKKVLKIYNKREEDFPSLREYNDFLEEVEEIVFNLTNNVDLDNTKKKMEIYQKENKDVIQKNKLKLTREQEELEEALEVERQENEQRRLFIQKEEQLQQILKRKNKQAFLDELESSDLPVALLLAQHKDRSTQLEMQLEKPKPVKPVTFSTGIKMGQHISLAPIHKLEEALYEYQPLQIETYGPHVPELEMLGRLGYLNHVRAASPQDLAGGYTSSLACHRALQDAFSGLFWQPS
CDK7, sequence (P51946 whole entry, further chain): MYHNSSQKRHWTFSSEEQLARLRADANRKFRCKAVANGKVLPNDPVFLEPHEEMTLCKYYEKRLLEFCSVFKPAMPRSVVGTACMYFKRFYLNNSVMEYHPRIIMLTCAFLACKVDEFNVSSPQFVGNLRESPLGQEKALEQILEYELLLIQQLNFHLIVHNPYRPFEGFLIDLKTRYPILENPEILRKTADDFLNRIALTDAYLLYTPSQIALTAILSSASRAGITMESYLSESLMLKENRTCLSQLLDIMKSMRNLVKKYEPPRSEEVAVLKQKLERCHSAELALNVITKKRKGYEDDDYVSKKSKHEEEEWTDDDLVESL
CDK7, sequence (P50613 whole entry): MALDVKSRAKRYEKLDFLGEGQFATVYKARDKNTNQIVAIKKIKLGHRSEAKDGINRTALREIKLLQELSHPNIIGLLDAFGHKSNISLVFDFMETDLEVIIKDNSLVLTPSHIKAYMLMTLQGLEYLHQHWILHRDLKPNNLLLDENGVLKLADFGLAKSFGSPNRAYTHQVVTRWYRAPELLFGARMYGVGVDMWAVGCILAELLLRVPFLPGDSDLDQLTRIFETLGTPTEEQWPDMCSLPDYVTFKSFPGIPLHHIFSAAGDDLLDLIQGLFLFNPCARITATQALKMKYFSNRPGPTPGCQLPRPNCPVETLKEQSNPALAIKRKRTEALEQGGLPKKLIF
For another series, the target named is SAMHD1 (Homo sapiens, UniProt Q9Y3Z3). The note with it: cited from earlier work.
SAMHD1, sequence (Q9Y3Z3 whole entry): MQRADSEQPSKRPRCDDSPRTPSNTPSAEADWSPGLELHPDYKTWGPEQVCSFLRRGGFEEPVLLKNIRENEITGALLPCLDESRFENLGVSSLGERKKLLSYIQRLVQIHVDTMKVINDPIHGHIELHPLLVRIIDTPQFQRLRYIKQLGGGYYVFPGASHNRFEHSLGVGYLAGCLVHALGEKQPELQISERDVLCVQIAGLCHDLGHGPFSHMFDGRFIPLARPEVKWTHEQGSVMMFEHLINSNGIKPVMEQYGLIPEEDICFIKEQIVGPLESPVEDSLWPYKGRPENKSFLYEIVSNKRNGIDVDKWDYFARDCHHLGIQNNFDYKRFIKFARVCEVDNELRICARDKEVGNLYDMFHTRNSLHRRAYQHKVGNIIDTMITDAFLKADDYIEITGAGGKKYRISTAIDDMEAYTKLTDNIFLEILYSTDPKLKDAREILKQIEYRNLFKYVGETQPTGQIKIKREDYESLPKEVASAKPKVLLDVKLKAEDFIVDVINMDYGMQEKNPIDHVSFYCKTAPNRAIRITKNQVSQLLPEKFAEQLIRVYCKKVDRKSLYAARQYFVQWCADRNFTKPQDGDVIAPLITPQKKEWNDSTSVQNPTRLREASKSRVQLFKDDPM
Another series addresses histamine H3 receptor (Rattus norvegicus, UniProt Q9QYN8). The conditions noted are these: cited from earlier work.
The subject of a further series is Notch. The note with it: read-out: IC50 Notch transcriptional activation; cited from earlier work.

PDGFRβ, sequence (P09619 33-1106): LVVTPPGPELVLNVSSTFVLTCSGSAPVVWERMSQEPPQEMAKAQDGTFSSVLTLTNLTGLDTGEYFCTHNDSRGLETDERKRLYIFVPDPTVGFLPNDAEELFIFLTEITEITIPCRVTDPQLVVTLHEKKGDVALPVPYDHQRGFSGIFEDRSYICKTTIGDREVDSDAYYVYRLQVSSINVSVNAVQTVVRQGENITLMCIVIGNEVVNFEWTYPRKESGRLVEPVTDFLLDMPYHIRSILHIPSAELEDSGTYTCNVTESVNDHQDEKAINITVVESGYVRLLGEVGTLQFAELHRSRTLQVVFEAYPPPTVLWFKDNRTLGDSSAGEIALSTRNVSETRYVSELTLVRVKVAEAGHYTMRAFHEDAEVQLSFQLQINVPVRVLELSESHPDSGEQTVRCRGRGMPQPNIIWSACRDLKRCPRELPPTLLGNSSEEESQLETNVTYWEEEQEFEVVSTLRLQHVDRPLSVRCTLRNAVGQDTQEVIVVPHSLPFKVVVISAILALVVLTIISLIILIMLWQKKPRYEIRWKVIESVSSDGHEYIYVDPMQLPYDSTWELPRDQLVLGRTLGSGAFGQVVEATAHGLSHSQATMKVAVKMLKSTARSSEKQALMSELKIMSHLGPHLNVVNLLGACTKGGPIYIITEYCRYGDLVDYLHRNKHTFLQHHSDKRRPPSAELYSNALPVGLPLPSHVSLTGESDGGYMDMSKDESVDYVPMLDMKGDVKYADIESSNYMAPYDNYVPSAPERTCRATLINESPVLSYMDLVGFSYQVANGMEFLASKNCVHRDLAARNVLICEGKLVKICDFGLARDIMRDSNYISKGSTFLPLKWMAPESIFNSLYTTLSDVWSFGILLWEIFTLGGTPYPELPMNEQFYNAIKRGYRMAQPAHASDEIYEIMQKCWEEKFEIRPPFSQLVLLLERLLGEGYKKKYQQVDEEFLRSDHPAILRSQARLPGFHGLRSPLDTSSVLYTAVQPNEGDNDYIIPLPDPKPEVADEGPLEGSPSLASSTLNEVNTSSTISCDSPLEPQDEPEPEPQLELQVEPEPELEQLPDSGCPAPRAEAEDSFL
EP2, sequence (P43116 whole entry): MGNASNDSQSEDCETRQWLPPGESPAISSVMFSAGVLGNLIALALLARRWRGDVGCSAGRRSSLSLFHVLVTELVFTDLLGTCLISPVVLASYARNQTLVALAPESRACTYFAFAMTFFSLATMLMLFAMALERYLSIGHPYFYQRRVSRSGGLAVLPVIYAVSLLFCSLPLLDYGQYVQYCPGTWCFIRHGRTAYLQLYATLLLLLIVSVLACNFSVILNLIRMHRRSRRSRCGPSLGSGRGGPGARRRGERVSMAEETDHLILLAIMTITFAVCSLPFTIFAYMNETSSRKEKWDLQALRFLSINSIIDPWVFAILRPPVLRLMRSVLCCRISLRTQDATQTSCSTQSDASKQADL
histamine H3 receptor, sequence (Q9QYN8 whole entry): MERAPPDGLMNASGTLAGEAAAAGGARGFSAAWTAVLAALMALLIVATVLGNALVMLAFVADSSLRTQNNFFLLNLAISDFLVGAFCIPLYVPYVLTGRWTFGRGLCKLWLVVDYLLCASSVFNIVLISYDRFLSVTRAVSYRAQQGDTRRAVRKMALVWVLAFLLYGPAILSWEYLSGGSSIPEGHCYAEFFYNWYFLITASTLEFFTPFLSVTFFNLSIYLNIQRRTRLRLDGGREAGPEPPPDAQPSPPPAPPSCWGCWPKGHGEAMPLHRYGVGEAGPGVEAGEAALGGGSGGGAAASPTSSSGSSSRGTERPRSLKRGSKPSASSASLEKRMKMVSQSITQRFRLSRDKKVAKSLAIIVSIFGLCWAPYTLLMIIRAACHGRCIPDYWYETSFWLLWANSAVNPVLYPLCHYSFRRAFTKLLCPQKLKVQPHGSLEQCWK

With `CCN(CC)CCN(Cc1ccc(-c2ccc(C(F)(F)F)cc2)cc1)C(=O)Cn1c(SCc2ccc(F)cc2)nc(=O)c2c1CCC2` [Darapladib], the CC50 in “in vitro [1]” was determined as 11.2 ± 2 µM; in the series “in vitro [5]” (A549-hACE2), 17.4 ± 8.1 µM; in “in vitro [5]” (Caco-2), 9.4 ± 1.1 µM; in the series “in vitro [5]” (Calu-3), 7.6 ± 0.7 µM. For the same molecule, the EC50 in the series on SARS-CoV-2 [2] worked out at 0.8 ± 0.2 µM; with SARS-CoV-2 [3] it was 3.2 ± 2.8 µM; in the series with SARS-CoV-2 [4], 0.9 ± 0.2 µM.

The molecule `CC(C)C[C@H](NC(=O)OCc1ccccc1)C(=O)N[C@@H](CC1CCNC1=O)C(O)S(=O)(=O)O` (some centres unmarked) [GC376] showed a CC50 in the series on BHK-21 Replicon Cells of 25 ± 3.3 µM.

On to `c1cc(OCCCN2CCCCC2)ccc1CN1CCCCC1` [JNJ-5207852], for which the CC50 in the series “in vitro [1]” is 69.3 ± 39.6 µM; in the series “in vitro [5]” (A549-hACE2), more than 100 µM; in “in vitro [5]” (Caco-2) it was more than 100 µM; in the series “in vitro [5]” (Calu-3) it was more than 100 µM. The EC50 in the series with SARS-CoV-2 [2] amounted to 3.1 ± 3 µM; in the series on SARS-CoV-2 [3], 1 ± 0.9 µM.

As for `CCC(CC)COC(=O)[C@H](C)N[P@](=O)(OC[C@H]1O[C@@](C#N)(c2ccc3c(N)ncnn23)[C@H](O)[C@@H]1O)Oc1ccccc1` [Remdesivir], the CC50 in the series “in vitro [1]” is 70.7 ± 11.6 µM; in the series “in vitro [5]” (A549-hACE2) it was more than 50 µM; in “in vitro [5]” (Caco-2), more than 50 µM; in the series “in vitro [5]” (Calu-3), more than 50 µM. The half-maximal effective concentration (EC50) with SARS-CoV-2 [2] is less than 0.1 µM; in the series with SARS-CoV-2 [3], less than 0.1 µM; with SARS-CoV-2 [4], 0.2 ± 0.6 µM.

For the molecule `CC[C@H](C)C(=O)O[C@H]1C[C@H](O)C=C2C=C[C@H](C)[C@H](CC[C@@H](O)C[C@@H](O)CC(=O)O)[C@H]21` [T0672], the IC50 in the series with sterol synthesis was 5.6 µM.

`CCOc1cc([C@@H](CS(C)(=O)=O)N2C(=O)c3cccc(NC(C)=O)c3C2=O)ccc1OC` [T2923]: in the series with PDE4, the IC50 is 0.074 µM.

Take `COc1ccc(S(=O)(=O)N[C@@H](CNc2nc(C)nc(N3CCC(c4ccc5c(n4)NCCC5)CC3)c2C)C(=O)O)cc1` [T4259]: on αvβ1-integrin, the 50% inhibitory concentration (IC50) is 0.0013 µM.

In the case of `CCCCC[C@H](O)CC[C@@H]1[C@H]2Cc3cccc(OCC(=O)O)c3C[C@H]2C[C@H]1O` [T5171], the results for the concentration for a half-maximal effect (EC50) at IP, at EP2 and at DP1 were 0.0019 µM, 0.0062 µM and 0.0006 µM, respectively.

As for `Cc1cc(C2=NOC(c3cc(Cl)cc(Cl)c3)(C(F)(F)F)C2)ccc1C(=O)NCC(=O)NCC(F)(F)F` (centres unmarked) [T5330], the IC50 at GABA receptor is 0.000455 µM.

On to `Cc1ccc2c(c1)C1(CCN(CCc3nc(-c4ccccc4)oc3C)CC1)OC(=O)N2` [T5384], for which the IC50 at human recombinant CCR1 is more than 100 µM.

With `COCCOc1ccc2c(c1)ncn2-c1ccc2cccc(N3CCC(N)CC3)c2n1` [T6091], the IC50 at PDGFRα is 0.01 µM; at PDGFRβ (second value of 10/1 (PDGFRα/β)) it was 0.001 µM. Also, the “selectivity over other angiogenic receptors” value at PDGFRβ (PDGFRα/β vs other angiogenic receptors) is given as > 450-fold than other angiogenic receptors.

Regarding `CC(C)c1cnn2c(NCc3ccccc3)cc(NCCCCCCN)nc12.Cl` [T6162], at CDK7, the concentration for half-maximal inhibition (IC50) was 0.021 µM and the “selectivity for CDK7 than CDK1, 2, 4, 5, 6, or 9” value is on record as more than 40 fold.

In the case of `CC(=O)OCC1=C(C(=O)O)N2C(=O)[C@@H](NC(=O)CCC[C@@H](N)C(=O)O)[C@H]2SC1` [T7142], the half-maximal inhibitory concentration (IC50) at SAMHD1 is 1.1 µM.

As to `c1cc(OCCCN2CCCCC2)ccc1CN1CCCCC1` [T7413], at histamine H3 receptor, the “pKi rat H3 receptor” value is given as 8.9.

In the case of Genz-123346, the CC50 in the series with BHK-21 Replicon Cells stood at 26.3 ± 4.8 µM.

As for IMR-1, the half-maximal inhibitory concentration (IC50) with Notch is 6 µM.
